Target: T1, vanilloid receptor 1 (VR1/TRPV1 receptor) (Homo sapiens, UniProt Q8NER1)
T1 construct: expressed in transfected cells; host or cells: CHO K1
Experiment: Functional testing on the vanilloid receptor 1 (FLIPR Ca2+ influx assay, capsaicin stimulation)
Type: cell-based
Settings: Cap = capsaicin; human being; Ki from IC50 by the Cheng-Prusoff equation; read-out: (f) Ki (human being) [nM] Cap
Protocol: Furthermore, preference may be given to compounds according to the invention that cause a 50 percent displacement of capsaicin, which is present at a concentration of 100 nM, in a FLIPR assay with CHO K1 cells which were transfected with the human VR1 gene at a concentration of less than 2,000 nM, preferably less than 1,000 nM, particularly preferably less than 300 nM, most particularly preferably less than 100 nM, even more preferably less than 75 nM, additionally preferably less than 50 nM, most preferably less than 10 nM.
In the process, the Ca^2+ influx is quantified in the FLIPR assay with the aid of a Ca^2+-sensitive dye (type Fluo-4, Molecular Probes Europe BV, Leiden, the Netherlands) in a fluorescent imaging plate reader (FLIPR, Molecular Devices, Sunnyvale, USA), as described hereinafter.
I. Functional Testing Carried Out on the Vanilloid Receptor 1 (VR1/TRPV1 Receptor) […]
The number of cells in the suspension is set to 3×10^5 per mL and 150 μL of this suspension are in each case introduced into a recess in the cell culture plates coated as described hereinbefore. In the incubator the plates are left for two to three days at 37° C., 5% by volume of CO2 and 95% relative humidity. Subsequently, the cells are loaded with 2 μM of Fluo-4 and 0.01% by volume of Pluronic F127 (Molecular Probes Europe BV, Leiden, the Netherlands) in HBSS buffer (Hank's buffered saline solution, Gibco Invitrogen GmbH, Karlsruhe, Germany) for 30 min at 37° C., washed 3 times with HBSS buffer and after further incubation for 15 minutes at room temperature used for Ca^2+ measurement in a FLIPR assay. The Ca^2+ dependent fluorescence is in this case measured before and after the addition of substances (λex=488 nm, λem=540 nm). Quantification is carried out by measuring the highest fluorescence intensity (FC, fluorescence counts) over time.
The FLIPR protocol consists of 2 substance additions. First the compounds to be tested (10 μM) are pipetted onto the cells and the Ca^2+ influx is compared with the control (capsaicin 10 μM). This provides the result in % activation based on the Ca^2+ signal after the addition of 10 μM of capsaicin (CP). After 5 minutes' incubation, 100 nM of capsaicin are applied and the Ca^2+ influx is also determined.
Desensitising agonists and antagonists lead to suppression of the Ca^2+ influx. The % inhibition is calculated compared to the maximum achievable inhibition with 10 μM of capsazepine.
Triple analyses (n=3) are carried out and repeated in at least 3 independent experiments (N=4).
Starting from the percentage displacement caused by different concentrations of the compounds to be tested of general formula I, IC50 inhibitory concentrations which cause a 50-percent displacement of capsaicin were calculated. Ki values for the test substances were obtained by conversion by means of the Cheng-Prusoff equation (Cheng, Prusoff; Biochem. Pharmacol. 22, 3099-3108, 1973).
The affinity of the compounds according to the invention for the vanilloid receptor 1 (VR1/TRPV1 receptor) was determined as described hereinbefore (pharmacological method I).

T1 sequence (Q8NER1 whole entry): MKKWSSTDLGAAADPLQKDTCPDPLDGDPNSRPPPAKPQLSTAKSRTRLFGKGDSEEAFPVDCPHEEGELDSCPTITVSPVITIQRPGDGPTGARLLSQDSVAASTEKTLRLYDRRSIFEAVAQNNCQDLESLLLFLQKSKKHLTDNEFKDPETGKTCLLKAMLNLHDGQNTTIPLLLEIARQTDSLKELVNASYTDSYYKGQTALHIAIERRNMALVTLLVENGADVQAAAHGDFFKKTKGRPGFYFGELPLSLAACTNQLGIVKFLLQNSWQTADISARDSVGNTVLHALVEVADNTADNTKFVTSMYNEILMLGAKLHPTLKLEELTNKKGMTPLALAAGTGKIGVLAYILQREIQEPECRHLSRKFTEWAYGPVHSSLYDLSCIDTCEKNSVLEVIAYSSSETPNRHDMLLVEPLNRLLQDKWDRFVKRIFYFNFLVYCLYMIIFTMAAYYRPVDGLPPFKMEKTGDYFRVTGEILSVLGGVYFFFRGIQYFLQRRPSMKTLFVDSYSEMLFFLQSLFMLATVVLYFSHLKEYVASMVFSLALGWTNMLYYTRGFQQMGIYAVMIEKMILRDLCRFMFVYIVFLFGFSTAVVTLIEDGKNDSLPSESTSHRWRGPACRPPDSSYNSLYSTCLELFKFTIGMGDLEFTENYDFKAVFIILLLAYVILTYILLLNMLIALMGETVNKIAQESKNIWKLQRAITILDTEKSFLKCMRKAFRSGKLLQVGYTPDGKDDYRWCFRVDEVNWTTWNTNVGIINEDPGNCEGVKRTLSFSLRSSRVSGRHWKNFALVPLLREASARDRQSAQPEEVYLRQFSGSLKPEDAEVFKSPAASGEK

Q: For `NS(=O)(=O)NCc1ccc(NC(=O)NCc2ccc(C(F)(F)F)nc2OC2CCCC2)cc1F` [Example 38, 1-{3-fluoro-4-[(sulfamoylamino)methyl]phenyl}-3-{[2-cyclopentyloxy-6-(trifluoromethyl)pyridin-3-yl]methyl}urea], which Ki is on record?
A: 5 nM

Q: Which Ki does the source give for `CC(C(=O)NCc1ccc(C(F)(F)F)nc1-c1ccc2c(c1)OCO2)c1ccc(CNS(C)(=O)=O)c(F)c1` (centres unmarked) [Example 45, N-((2-(benzo[d][1,3]dioxol-5-yl)-6-(trifluoromethyl)pyridin-3-yl)methyl)-2-(3-fluoro-4-(methylsulfonamidomethyl)phenyl)propanamide] here?
A: 59 nM
